Laboratory results reported in US7691969B2, “Isolated GRP94 ligand binding domain polypeptide and nucleic acid encoding same, crystalline form of same, and screening methods employing same” (Duke University, priority 2001, dated 2010).

Legend:
GRP94 [1] = molecular target: T1, GRP94 (Sus scrofa, UniProt Q29092); test: Fluorophore binding to native and heat shocked GRP94 (fluorescence emission); design: species or system porcine
T1 construct: GRP94 was purified from porcine pancreas rough microsomes; from tissue; host or cells: porcine pancreas rough microsomes (lumenal contents)
Description: Fluorophore Binding Reactions.
Fluorescence Measurements. […] All spectra were background corrected.
To characterize the structural basis for the heat shock dependent activation of GRP94 activity, the interaction of polarity-sensitive fluorophores with native and heat shocked GRP94 was examined. The three probes tested, Prodan (6-propionyl-2-(dimethylamino)naphthalene), 8-ANS (1,8-anilinonaphthalenesulfonate) and bis-ANS (bis(1,8-anilino-naphthalenesulfonate) are structurally related probes that bind to hydrophobic sites on proteins and undergo substantial fluorescence spectrum changes upon introduction into nonpolar environments, as discussed by Rosen & Weber (1969) Biochemistry 8:3915-3920; Weber & Farris (1979) Biochemistry 18:3075-3078; Takashi et al. (1977) Proc Natl Acad Sci USA 74:2334-2338; Shi et al. (1994) Biochemistry 33:7536-7546. The following experimental protocol was utilized. GRP94 was warmed to 37° C. and either maintained at 37° C. or heat shocked for 15 minutes at 50° C., followed by incubation at 37° C. Subsequently, probe stocks were added to the GRP94 stocks and emission spectra recorded after 30 min at 37° C.
Under the experimental conditions used in this series of experiments, bis-ANS binding to GRP94 was near maximal at a 20-fold molar excess of GRP94 monomer over bis-ANS, with half maximal binding observed at 110 nM GRP94 (FIG. 2B).

GRP94 [2] = molecular target: T1, GRP94; test: Conformational analysis by proteolysis (trypsin, SDS-PAGE); assay type: biochemical, porcine; conditions: 5 μM GRP94, 50 μM bis-ANS, 1 h 37° C.; 0.1% trypsin 30 min
Protocol: Conformational Analysis by Proteolysis. The conformational state of GRP94 was assessed by tryptic digestion of the protein and subsequent SDS-PAGE analysis. […] Samples were then combined with 0.1% trypsin and digested for 30 minutes at 37° C. An equal volume of SDS-PAGE sample buffer was added and the samples were snap frozen in liquid nitrogen. Immediately prior to gel analysis, samples were thawed and boiled for 5 minutes. […] Gels were fixed and stained with Coomassie Blue. For time course experiments, excess free bis-ANS was removed immediately prior to trypsinization by gel filtration on 0.5 ml G-25 SEPHADEX® spin columns.

HSP90 [3] = molecular target: HSP90 (Homo sapiens, UniProt P07900); test: as above; assay type: biochemical
GRP94 [4] = molecular target: T1, GRP94; test: Native blue electrophoresis (BN-PAGE) of oligomeric state; assay type: biochemical, porcine; conditions: ten-fold molar excess of bis-ANS
Protocol: Native Blue Electrophoresis. The oligomeric state of GRP94 was assayed by blue native polyacrylamide gel electrophoresis (BN-PAGE) as described by Schagger et al. (1994) Anal Biochem 217:220-230. GRP94 was either heat shocked or exposed to a 10-fold molar excess of bis-ANS for the indicated times. Samples were then dissolved in 15% glycerol and loaded onto 5-18% gradient gels with 0.02% Coomassie Brilliant Blue in the cathode buffer. Gels were run at 4° C., stained with Coomassie Blue, de-stained and dried.

GRP94 [5] = molecular target: T1, GRP94; test: Far-UV circular dichroism; assay type: biochemical, porcine; conditions: 1 μM GRP94, 10 μM bis-ANS, 2 h
Protocol: Circular Dichroism Measurements. Far-UV CD spectrometry was performed on an AVIV Associates 62DS™ circular dichroism spectrometer (AVIV Associates of Lakewood, N.J.). Samples were analyzed in a 1 mm path length quartz cuvette at 37° C. GRP94 samples (1 μM) were prepared in standard phosphate buffered saline solution as buffer A produced unacceptable dynode voltages in the relevant region of the spectrum. GRP94 was incubated with 10 µM bis-ANS for 2 hours at 37° C. prior to obtaining spectra. Spectra were recorded from 300 to 195 nm. The α-helical content of GRP94 was calculated from the molar ellipticity at 222 nm. See Myers & Jakoby (1975) J Biol Chem 250:3785-3789.

GRP94 [6] = molecular target: T1, GRP94; test: Citrate synthase thermal aggregation assay (chaperone activity); assay type: biochemical, porcine; conditions: 1 μM GRP94 preincubated 2 h with 10 μM bis-ANS; 0.15 μM citrate synthase, 43° C.
Protocol: Citrate Synthase Aggregation Assays. The effects of GRP94 on the thermal aggregation of citrate synthase were assayed by the methods described by Buchner et al. (1998) Methods Enzymol 290:323-338. Samples containing no protein, or GRP94 (1 μM), were incubated in 40 mM HEPES pH 7.5 for two hours at 37° C. with either 0.2% DMF or 10 µM bis-ANS. The samples were then warmed to 43° C. for five minutes and placed in a spectrofluorometer thermostatted at 43° C. Citrate synthase was then added to 0.15 μM final concentration and the thermal aggregation of the enzyme followed by light scattering. Excitation and emission wavelengths were both 500 nm with 2 nm slit width. The time course of citrate synthase aggregation was followed for 1000 seconds.
To determine if the bis-ANS-dependent conformational changes in GRP94 were of functional significance, the molecular chaperone activities of native, heat shocked and bis-ANS treated GRP94 were evaluated in a thermal aggregation assay, as described by Jakob et al. (1995) J Biol Chem 270:7288-7294 and Buchner et al. (1998) Methods Enzymol 290:323-338. […] Following experimental treatment of the GRP94, reactions were equilibrated at 43° C., citrate synthase then added and aggregation, as represented by light scattering, was measured.

GRP94 [7] = molecular target: T1, GRP94; test: Identification of the bis-ANS binding site (photo-crosslinking, Edman sequencing); design: species or system porcine
Protocol: Identification of the bis-ANS binding site. […] Following photocrosslinking, GRP94-bis-ANS complexes were digested with trypsin for one hour at 37° C.
As described in Materials and Methods, GRP94 was combined with an excess of bis-ANS and photo-crosslinked on ice for 15 minutes. GRP94 was subsequently digested with trypsin, the fluorescent peptides purified by HPLC, and the sequence of the labeled peptides determined by Edman sequencing.

BiP = test: ATP binding assay ([32P]ATP, nitrocellulose filtration); design: species or system porcine; conditions: 50 μM [32P]ATP, 1 h on ice
Protocol: (§1) ATP Binding Assay. Six μg of GRP94, BiP, and Hsp90 was incubated with 50 μM […] (1000 μCi/μmol) (Amersham Pharmacia Biotech of Piscataway, N.J.) in buffer B on ice for 1 hour. Nitrocellulose filters (BA85) (Schleicher & Schuell of Keene, N.H.) were individually wet in buffer B before use, and bound versus free [^32P]-ATP was separated by vacuum filtration. Filters were washed with 3×2 mL of ice cold buffer B, placed in 5 mL of scintillation fluid, vortexed, and counted.

GRP94 [8] = molecular target: T1, GRP94; test: as above; design: species or system porcine; conditions: 50 μM [32P]ATP, 1 h on ice
Protocol: as §1

GRP94 [9] = molecular target: T1, GRP94; test: [3H]-NECA competitive displacement assay; assay type: binding, porcine
Protocol: Where indicated, binding reactions were performed in either buffer C (10 mM Tris, pH 7.5, 50 mM KCl, 5 mM MgCl2, 2 mM DTT, 0.01% NP-40, 20 mM Na2MoO4) or 50 mM Tris, pH 7.5, 10 mM Mg(OAc)2. […] Vacuum filtration was performed with an Amersham Pharmacia Biotech (Piscataway, N.J.) vacuum filtration manifold.
All binding reactions were performed in triplicate and corrected by subtraction of background values, determined in binding reactions lacking GRP94.

GRP94 [10] = molecular target: T1, GRP94; test: Tryptophan fluorescence (tertiary conformational state); assay type: biochemical, porcine; conditions: 50 μM NECA, 50 μM geldanamycin, 2.5 mM ATP or 2.5 mM ADP; 1 h 37° C.
Protocol: Tryptophan Fluorescence. Tryptophan fluorescence measurements were conducted in a FLUOROMAX™ spectrofluorometer (Spex Industries, Inc. of Edison, N.J.) with the slit widths set to 1 nm for both excitation and emission. […] All spectra were corrected by subtraction of buffer or buffer plus ligand samples. GRP94 (50 μg/ml) was incubated in buffer A supplemented with 10 mM Mg(OAc)2 and the following concentrations of ligands for 1 hour at 37° C. […] Samples were then cooled to room temperature, transferred to a quartz cuvette, and the spectra collected.

HSP90 [11] = molecular target: HSP90 (Saccharomyces cerevisiae, UniProt P02829); conditions: Prodromou et al. (1997); cited from earlier work
HSP90 (Saccharomyces cerevisiae, UniProt P02829), sequence (P02829 whole entry): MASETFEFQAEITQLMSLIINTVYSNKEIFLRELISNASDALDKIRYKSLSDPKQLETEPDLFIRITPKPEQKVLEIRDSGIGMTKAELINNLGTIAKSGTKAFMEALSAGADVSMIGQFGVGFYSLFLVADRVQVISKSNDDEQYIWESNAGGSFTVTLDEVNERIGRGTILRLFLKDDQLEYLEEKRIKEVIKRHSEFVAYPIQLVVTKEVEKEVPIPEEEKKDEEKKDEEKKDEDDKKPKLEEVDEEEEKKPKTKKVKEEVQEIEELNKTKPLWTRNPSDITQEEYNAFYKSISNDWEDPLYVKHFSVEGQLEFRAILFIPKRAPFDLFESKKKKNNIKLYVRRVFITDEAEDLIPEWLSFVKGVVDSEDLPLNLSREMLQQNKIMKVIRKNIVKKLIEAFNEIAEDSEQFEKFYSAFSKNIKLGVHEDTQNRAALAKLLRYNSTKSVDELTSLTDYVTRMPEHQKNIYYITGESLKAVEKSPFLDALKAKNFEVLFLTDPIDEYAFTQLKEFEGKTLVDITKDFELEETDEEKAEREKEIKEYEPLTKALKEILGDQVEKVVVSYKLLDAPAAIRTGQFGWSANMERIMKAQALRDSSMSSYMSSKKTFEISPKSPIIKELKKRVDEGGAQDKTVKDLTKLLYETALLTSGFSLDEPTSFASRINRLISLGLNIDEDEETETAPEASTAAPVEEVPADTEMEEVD

T1 sequence (Q29092 22-804): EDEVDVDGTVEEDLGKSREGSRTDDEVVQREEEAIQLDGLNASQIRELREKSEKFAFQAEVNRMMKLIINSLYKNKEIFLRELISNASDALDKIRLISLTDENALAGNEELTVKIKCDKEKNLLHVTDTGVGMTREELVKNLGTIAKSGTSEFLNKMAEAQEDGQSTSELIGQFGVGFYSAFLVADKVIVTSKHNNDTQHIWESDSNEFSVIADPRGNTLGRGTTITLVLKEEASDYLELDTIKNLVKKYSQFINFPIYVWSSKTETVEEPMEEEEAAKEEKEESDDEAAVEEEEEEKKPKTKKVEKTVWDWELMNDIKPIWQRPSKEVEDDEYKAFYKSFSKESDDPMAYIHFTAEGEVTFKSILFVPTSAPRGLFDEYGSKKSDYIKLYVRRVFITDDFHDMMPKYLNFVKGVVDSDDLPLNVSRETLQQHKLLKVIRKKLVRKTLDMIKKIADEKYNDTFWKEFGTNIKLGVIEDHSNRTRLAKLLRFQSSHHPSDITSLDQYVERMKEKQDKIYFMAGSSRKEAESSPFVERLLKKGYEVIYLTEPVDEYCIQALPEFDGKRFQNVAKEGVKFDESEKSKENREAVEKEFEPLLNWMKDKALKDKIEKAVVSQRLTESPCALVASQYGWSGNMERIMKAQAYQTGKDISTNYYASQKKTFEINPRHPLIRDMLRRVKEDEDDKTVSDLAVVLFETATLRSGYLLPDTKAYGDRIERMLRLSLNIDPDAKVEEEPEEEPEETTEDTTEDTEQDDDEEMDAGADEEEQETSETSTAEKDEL

| Kd (GRP94 [1]; fixed 50 nM bis-ANS, increasing GRP94, excitation 393 nm, emission 475 nm, read-out: half maximal binding of bis-ANS to heat shocked GRP94 (GRP94 concentration)) | molar excess of GRP94 monomer over bis-ANS at near maximal binding (GRP94 [1]; heat shocked GRP94) | secondary structure of GRP94 (CD spectra) (GRP94 [5]) | molar excess required for 50% inhibition of [3H]-NECA binding (GRP94 [9]; 20 nM [3H]-NECA) | nucleoside base specificity: binding to GRP94 by [3H]-NECA displacement (GRP94 [9]; competitors at 50 μM) | relative affinities for GRP94 in presence of Mg2+ (GRP94 [9]; excess Mg2+) | efficacy of competing NECA binding, ATP relative to ADP (GRP94 [9]; no excess Mg2+) | Compound | agonist activity for GRP94 activation (GRP94 [1]) | fluorophore binding to native versus heat shocked GRP94 (fluorescence emission) (GRP94 [1]; 0.5 μM GRP94, 5 μM probe, 37° C.) | trypsin proteolysis pattern of GRP94 (GRP94 [2]) | trypsin proteolysis pattern of HSP90 (HSP90 [3]) | quaternary structure (oligomerization) of GRP94 (GRP94 [4]) | thermal aggregation of citrate synthase in presence of treated GRP94 (GRP94 [6]) | site of bis-ANS binding to GRP94 (labeled peptide) (GRP94 [7]) | ATP binding (BiP) | ATP binding (GRP94 [8]) | effect of excess Mg2+ on binding to GRP94 (GRP94 [9]; 10 mM Mg(OAc)2 versus nominal magnesium) | change of GRP94 tryptophan fluorescence (GRP94 [10]) | Kd (HSP90 [11]) |
| --- | --- | --- | --- | --- | --- | --- | --- | --- | --- | --- | --- | --- | --- | --- | --- | --- | --- | --- | --- |
| 0.11 µM | 20 -fold | does not alter GRP94 secondary structure | – | – | – | – | 4,4′-dianilino-1,1-binaphthyl-5,5-disulfonic acid [bis-ANS] | both an agonist for GRP94 activation as well as an indicator for the relative state of activation | a level of fluorophore binding similar to that seen with heat shocked GRP94 was observed | substantially reduced recovery of the prominent proteolysis products | Essentially identical proteolysis patterns were observed following either heat shock or bis-ANS treatment of HSP90 | induces changes in the quaternary structure of GRP94 that mimic those seen upon heat shock | no thermal aggregation of citrate synthase was detectable | mapped to residues 271-281 of the N-terminal domain of GRP94 | – | – | – | – | – |
| – | – | – | ~1000 -fold molar excess | GRP94 could bind both ATP and deoxyATP | nearly identical relative affinities | eight-fold higher efficacy than ADP | Nc1ncnc2c1ncn2[C@@H]1O[C@H](COP(=O)(O)OP(=O)(O)OP(=O)(O)O)[C@@H](O)[C@H]1O [ATP] | – | – | – | – | – | – | – | displayed the expected ATP binding activity | no ATP binding was observed to Hsp90 or GRP94 | markedly stimulated the binding of ATP, ADP and AMP | the tryptophan fluorescence was decreased | 132 µM |
